In the supplement of paper PMC10132981, “Formate overflow drives toxic folate trapping in MTHFD1 inhibited cancer cells” (Nature Metabolism, 2023):
± gives the standard deviation of the averaged measurements.

Columns and labels:
Assay in all cases: EC50 for viability (resazurin, 96 h)
HCT116 = conditions: RPMI+GlutaMAX (10% FBS, 1% P/S)
SW620 MTHFD2 -/- = test system: SW620 MTHFD2 -/-
SW620 MTHFD2-/- = conditions: RPMI+GlutaMAX (5% dFBS, 1% P/S)
SW620 WT = test system: SW620 WT
SW620 = test system: SW620

Nc1nc(N)c(CC(=O)Nc2cnc(C(=O)N[C@@H](CCC(=O)O)C(=O)O)c(F)c2)c(=O)[nH]1 [TH9619]
EC50 for viability [µM]
Conditions | metabolite supplement: Hypoxanthine | metabolite supplement: Hypoxanthine + Formate | metabolite supplement: Thymidine
HCT116 | 0.0135 | – | 1.19
SW620 MTHFD2-/- | 4.23 | 0.0301 | –

Conditions | EC50 for viability [µM]
SW620 MTHFD2 -/-, RPMI+GlutaMAX (5% dFBS, 1% P/S), metabolite supplement: Hypoxanthine | 0.025
SW620 MTHFD2 -/-, RPMI+GlutaMAX (5% dFBS, 1% P/S), metabolite supplement: Sodium Formate | 0.00643
SW620 MTHFD2 -/-, RPMI+GlutaMAX (5% dFBS, 1% P/S), metabolite supplement: Thymidine | 0.000821 ± 0.0006
SW620 MTHFD2 -/-, RPMI+GlutaMAX (5% dFBS, 1% P/S), metabolite supplement: Thymidine + Sodium Formate | > 10
SW620 MTHFD2 -/-, RPMI+GlutaMAX (5% dFBS, 1% P/S), metabolite supplement: Vehicle | 0.00103 ± 0.00077
SW620 MTHFD2 -/-, RPMI+GlutaMAX (10% FBS, 1% P/S), metabolite supplement: None | 0.00282
SW620 MTHFD2 -/-, RPMI+GlutaMAX (10% dFBS, 1% P/S), metabolite supplement: None | 0.993
SW620 WT, RPMI+GlutaMAX (5% dFBS, 1% P/S), metabolite supplement: Adenine | 0.0189
SW620 WT, RPMI+GlutaMAX (5% dFBS, 1% P/S), metabolite supplement: Adenosine | 0.0183
SW620 WT, RPMI+GlutaMAX (5% dFBS, 1% P/S), metabolite supplement: Guanosine | 0.0242
SW620 WT, RPMI+GlutaMAX (5% dFBS, 1% P/S), metabolite supplement: Hypoxanthine | 0.0195 ± 0.0047
SW620 WT, RPMI+GlutaMAX (5% dFBS, 1% P/S), metabolite supplement: Hypoxanthine + AICAr 10 µM | 0.0197
SW620 WT, RPMI+GlutaMAX (5% dFBS, 1% P/S), metabolite supplement: Hypoxanthine + AICAr 30 µM | 0.0303
SW620 WT, RPMI+GlutaMAX (5% dFBS, 1% P/S), metabolite supplement: Hypoxanthine + AICAr 50 µM | 0.0759
SW620 WT, RPMI+GlutaMAX (5% dFBS, 1% P/S), metabolite supplement: Hypoxanthine + AICAr 100 µM | 1.67
SW620 WT, RPMI+GlutaMAX (5% dFBS, 1% P/S), metabolite supplement: Sodium Formate | 0.944
SW620 WT, RPMI+GlutaMAX (5% dFBS, 1% P/S), metabolite supplement: Thymidine | 1.9 ± 1.3
SW620 WT, RPMI+GlutaMAX (5% dFBS, 1% P/S), metabolite supplement: Thymidine + Sodium Formate | > 10
SW620 WT, RPMI+GlutaMAX (5% dFBS, 1% P/S), metabolite supplement: Vehicle | 0.861 ± 0.38
SW620 WT, RPMI+GlutaMAX (5% dFBS, 1% P/S, 10 uM Hypoxanthine), metabolite supplement: Thymidine 0.1 uM | 0.0189
SW620 WT, RPMI+GlutaMAX (5% dFBS, 1% P/S, 10 uM Hypoxanthine), metabolite supplement: Thymidine 0.5 uM | 0.0669
SW620 WT, RPMI+GlutaMAX (5% dFBS, 1% P/S, 10 uM Hypoxanthine), metabolite supplement: Thymidine 1uM | 3.91
SW620 WT, RPMI+GlutaMAX (5% dFBS, 1% P/S, 10 uM Hypoxanthine), metabolite supplement: Thymidine 5uM | > 10
SW620 WT, RPMI+GlutaMAX (5% dFBS, 1% P/S, 10 uM Hypoxanthine), metabolite supplement: Thymidine 10 uM | > 10
SW620 WT, RPMI+GlutaMAX (5% dFBS, 1% P/S, 10 uM Hypoxanthine), metabolite supplement: Thymidine 25 uM | > 10
SW620 WT, RPMI+GlutaMAX (5% dFBS, 1% P/S, 10 uM Hypoxanthine), metabolite supplement: Thymidine 50 uM | > 10
SW620 WT, RPMI+GlutaMAX (5% dFBS, 1% P/S, 50 uM Hypoxanthine), metabolite supplement: Thymidine 0.1 uM | 0.0174
SW620 WT, RPMI+GlutaMAX (5% dFBS, 1% P/S, 50 uM Hypoxanthine), metabolite supplement: Thymidine 0.5 uM | 0.0263
SW620 WT, RPMI+GlutaMAX (5% dFBS, 1% P/S, 50 uM Hypoxanthine), metabolite supplement: Thymidine 1uM | 0.0319
SW620 WT, RPMI+GlutaMAX (5% dFBS, 1% P/S, 50 uM Hypoxanthine), metabolite supplement: Thymidine 5uM | > 10
SW620 WT, RPMI+GlutaMAX (5% dFBS, 1% P/S, 50 uM Hypoxanthine), metabolite supplement: Thymidine 10 uM | > 10
SW620 WT, RPMI+GlutaMAX (5% dFBS, 1% P/S, 50 uM Hypoxanthine), metabolite supplement: Thymidine 25 uM | > 10
SW620 WT, RPMI+GlutaMAX (5% dFBS, 1% P/S, 50 uM Hypoxanthine), metabolite supplement: Thymidine 50 uM | > 10
SW620 WT, RPMI+GlutaMAX (10% FBS, 1% P/S), metabolite supplement: None | 0.0329
SW620 WT, RPMI+GlutaMAX (10% dFBS, 1% P/S), metabolite supplement: None | 0.00493
SW620, HPLM (5% dFBS, 1% P/S), metabolite supplement: Vehicle | 0.0113
SW620, RPMI+GlutaMAX (5% FBS, 1% P/S), metabolite supplement: Vehicle | 0.0249
SW620, RPMI+GlutaMAX (5% dFBS, 1% P/S), metabolite supplement: 0 nM Pyrazofurin | 1.03
SW620, RPMI+GlutaMAX (5% dFBS, 1% P/S), metabolite supplement: 25 nM Pyrazofurin | 1.16
SW620, RPMI+GlutaMAX (5% dFBS, 1% P/S), metabolite supplement: 50 nM Pyrazofurin | 0.365
SW620, RPMI+GlutaMAX (5% dFBS, 1% P/S), metabolite supplement: 0.5 µM Hypoxanthine | 0.287
SW620, RPMI+GlutaMAX (5% dFBS, 1% P/S), metabolite supplement: 1.0 µM Hypoxanthine | 0.0755
SW620, RPMI+GlutaMAX (5% dFBS, 1% P/S), metabolite supplement: 5.0 µM Hypoxanthine | 0.0141
SW620, RPMI+GlutaMAX (5% dFBS, 1% P/S), metabolite supplement: 10 µM Hypoxanthine | 0.0132
SW620, RPMI+GlutaMAX (5% dFBS, 1% P/S), metabolite supplement: 12,5 nM Pyrazofurin | 1.42
SW620, RPMI+GlutaMAX (5% dFBS, 1% P/S), metabolite supplement: 25 µM Hypoxanthine | 0.0146
SW620, RPMI+GlutaMAX (5% dFBS, 1% P/S), metabolite supplement: 50 µM Hypoxanthine | 0.0139 ± 0.0022
SW620, RPMI+GlutaMAX (5% dFBS, 1% P/S), metabolite supplement: Allopurinol | 0.312
SW620, RPMI+GlutaMAX (5% dFBS, 1% P/S), metabolite supplement: Allopurinol + Hypoxanthine | 0.0155
SW620, RPMI+GlutaMAX (5% dFBS, 1% P/S), metabolite supplement: Deoxyuridine | 0.267
SW620, RPMI+GlutaMAX (5% dFBS, 1% P/S), metabolite supplement: Deoxyuridine + Hypoxanthine | 0.00978
SW620, RPMI+GlutaMAX (5% dFBS, 1% P/S), metabolite supplement: Febuxostat | 0.766
SW620, RPMI+GlutaMAX (5% dFBS, 1% P/S), metabolite supplement: Febuxostat + Hypoxanthine | 0.0252
SW620, RPMI+GlutaMAX (5% dFBS, 1% P/S), metabolite supplement: H2O2 | 0.406
SW620, RPMI+GlutaMAX (5% dFBS, 1% P/S), metabolite supplement: H2O2 + Hypoxanthine | 0.0163
SW620, RPMI+GlutaMAX (5% dFBS, 1% P/S), metabolite supplement: Hypoxanthine | 0.0154 ± 0.0021
SW620, RPMI+GlutaMAX (5% dFBS, 1% P/S), metabolite supplement: Orotic acid | 0.309
SW620, RPMI+GlutaMAX (5% dFBS, 1% P/S), metabolite supplement: Orotic acid + Hypoxanthine | 0.0128
SW620, RPMI+GlutaMAX (5% dFBS, 1% P/S), metabolite supplement: Uric acid | 0.502
SW620, RPMI+GlutaMAX (5% dFBS, 1% P/S), metabolite supplement: Vehicle | 0.4 ± 0.15
SW620, RPMI+GlutaMAX (5% dFBS, 1% P/S, 50 µM Hypoxanthine), metabolite supplement: 0 | 0.0133
SW620, RPMI+GlutaMAX (10% FBS, 1% P/S), metabolite supplement: Folic acid | 4
SW620, RPMI+GlutaMAX (10% FBS, 1% P/S), metabolite supplement: Folinic acid | > 10
SW620, RPMI+GlutaMAX (10% FBS, 1% P/S), metabolite supplement: Hypoxanthine | 0.0136
SW620, RPMI+GlutaMAX (10% FBS, 1% P/S), metabolite supplement: Sodium Formate | 0.0153
SW620, RPMI+GlutaMAX (10% FBS, 1% P/S), metabolite supplement: Thymidine | 0.516 ± 0.078
SW620, RPMI+GlutaMAX (10% FBS, 1% P/S), metabolite supplement: Thymidine + Folic acid | 8.88
SW620, RPMI+GlutaMAX (10% FBS, 1% P/S), metabolite supplement: Thymidine + Sodium Formate | 0.538
SW620, RPMI+GlutaMAX (10% FBS, 1% P/S), metabolite supplement: Vehicle | 0.0226 ± 0.0034
